Reference: patent US10968232B2 (Merck Sharp & Dohme Corp., priority 2016, dated 2021)
pEC50: −log10 of the molar value.

Target: T1, human GPR40 (Homo sapiens, UniProt O14842)
T1 construct: expressed in transfected cells
Assay: Inositol Phosphate Turnover (IP1) Assay
Assay type: cell-based
Conditions: HEK cells stably expressing human GPR40; CisBio IP-One kit; 60 minutes at 37 degrees; read-out: Human IP1 EC50
Method: Human GPR40 stable cell-lines were generated in HEK cells. The expression plasmids were transfected using lipofectamine (Life Technologies) following manufacturer's instructions. Stable cell-lines were generated following drug selection and single cell cloning. The assay was performed in 384-well format. HEK cells stably expressing human GPR40 were plated at 7500 cells per well in growth medium (DMEM/10% fetal calf serum). Cell plates were then incubated 16 hours at 37 degrees in a 5% CO2 incubator. Measurement of Inositol Phosphate Turnover (IP1) was performed using the CisBio IP-One kit (Part number 62IPAPEB). After the 16 hour incubation, the growth media was removed by centrifugation using the BlueWasher (AusWasher GUI Ver. v1.0.1.8) Protocol #21-“Light Dry” and 10 ul of stimulation buffer (prepared as described in the kit) was added to each well. In a separate plate, compounds were diluted in DMSO (200-fold over the final concentration in the assay well) and 50 nl was acoustically transferred to the appropriate well in the assay cell plate. The plates were then incubated for 60 minutes at 37 degrees in a 5% CO2 incubator. 10 ul of detection buffer (also prepared as described in the IP-One kit) was added to each well and the plates were incubated at room temperature for 60 minutes in the dark. The plates were then read in a Perkin Elmer EnVision or equivalent reader able to measure FRET. […] Data was normalized to % activity using a reference compound and EC50s determined using a standard 4-parameter fit.

T1 sequence (O14842 whole entry): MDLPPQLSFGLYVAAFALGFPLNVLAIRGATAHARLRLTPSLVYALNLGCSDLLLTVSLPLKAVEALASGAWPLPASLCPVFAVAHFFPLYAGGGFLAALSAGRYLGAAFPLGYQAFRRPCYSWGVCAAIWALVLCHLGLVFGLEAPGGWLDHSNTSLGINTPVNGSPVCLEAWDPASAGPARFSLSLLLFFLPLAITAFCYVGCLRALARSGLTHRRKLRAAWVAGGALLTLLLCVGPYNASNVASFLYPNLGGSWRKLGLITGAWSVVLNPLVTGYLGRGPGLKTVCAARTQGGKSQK

| pEC50 | SMILES |
| --- | --- |
| 8.86 | C[C@H](C(=O)O)[C@H](c1ccc2c(c1)OC1(CCCN([C@H](C)c3cc(C(F)(F)F)ccc3C(F)(F)F)CC1)CC2)C1CC1 (single isomer, unassigned) [Example 50, (2S,3R)-3-((S or R)-1-((R)-1-(2,5-bis (trifluoromethyl)phenyl)ethyl)spiro[azepane-4,2′-chroman]-7′-yl)-3-cyclopropyl-2-methylpropanoic acid] |
| 7.85 | C[C@H](C(=O)O)[C@H](c1ccc2c(c1)OC1(CCCN([C@@H](C)c3cc(C(F)(F)F)ccc3C(F)(F)F)CC1)CC2)C1CC1 (single isomer, unassigned) [Example 51, (2S,3R)-3-((R or S)-1-((S)-1-(2,5-bis (trifluoromethyl)phenyl)ethyl)spiro[azepane-4,2′-chroman]-7′-yl)-3-cyclopropyl-2-methylpropanoic acid] |
| 8.57 | C[C@H](C(=O)O)[C@H](c1ccc2c(c1)OC1(CCCN([C@@H](C)c3cc(C(F)(F)F)ccc3C(F)(F)F)CC1)CC2)C1CC1 (single isomer, unassigned) [Example 52, (2S,3R)-3-((S or R)-1-((S)-1-(2,5-bis (trifluoromethyl)phenyl)ethyl)spiro[azepane-4,2′-chroman]-7′-yl)-3-cyclopropyl-2-methylpropanoic acid] |
| 8.85 | CC(c1cc(C2CC2)ccc1C(F)(F)F)N1CCC2(CCc3ccc([C@H](C4CC4)[C@H](C)C(=O)O)cc3O2)CC1 (single isomer, unassigned) [Example 57, (2S,3R)-3-cyclopropyl-3-(1′-((R or S)-1-(5-cyclopropyl-2-(trifluoromethyl)phenyl)-ethyl)-spiro[chroman-2,4′-piperidin]-7-yl)-2-methylpropanoic Acid] |
| 8.35 | CC(c1cc(C2CC2)ccc1C(F)(F)F)N1CCC2(CCc3ccc([C@H](C4CC4)[C@H](C)C(=O)O)cc3O2)CC1 (single isomer, unassigned) [Example 58, (2S,3R)-3-cyclopropyl-3-(1′-((S or R)-1-(5-cyclo-propyl-2-(trifluoromethyl)-phenyl)ethyl)-spiro [chroman-2,4′-piperidin]-7-yl)-2-methylpropanoic acid] |
| 6.41 | CC(c1cc(Cl)ccc1OCC(F)(F)F)N1CCC2(CCc3ccc([C@H](C4CC4)[C@H](C)C(=O)O)cc3O2)CC1 (single isomer, unassigned) [Example 62, (2S,3R)-3-(1′-((R or S)-1-(5-chloro-2-(2,2,2-trifluoroethoxy)phenyl)ethyl)spiro [chroman-2,4′-piperidin]-7-yl)-3-cyclopropyl-2-methylpropanoic Acid] |
| 8.53 | C[C@H](C(=O)O)[C@H](c1ccc2c(c1)OC1(CC2)CCC(N(C)c2ncccc2C(F)(F)F)CC1)C1CC1 (single isomer, unassigned) [Example 63] |
| 7.55 | C[C@H](C(=O)O)[C@H](c1ccc2c(c1)OC1(CC2)CCC(Nc2cc(C(F)(F)F)ccc2C(F)(F)F)CC1)C1CC1 (single isomer, unassigned) [Example 64] |
| 7.55 | C[C@H](C(=O)O)[C@H](c1ccc2c(c1)OC1(CC2)CCC(Nc2ncccc2C(F)(F)F)CC1)C1CC1 (single isomer, unassigned) [Example 65] |
| 8.95 | C[C@H](C(=O)O)[C@H](c1ccc2c(c1)OC1(CC2)CCC(Nc2cc(C(F)(F)F)ccc2C(F)(F)F)CC1)C1CC1 (single isomer, unassigned) [Example 67] |
| 9.39 | C[C@H](C(=O)O)[C@H](c1ccc2c(c1)OC1(CC2)CCC(Nc2ncccc2C(F)(F)F)CC1)C1CC1 (single isomer, unassigned) [Example 68] |
| 9.38 | C[C@H](C(=O)O)[C@H](c1ccc2c(c1)OC1(CC2)CCC(N(C)c2ncccc2C(F)(F)F)CC1)C1CC1 (single isomer, unassigned) [Example 69] |
| 6.73 | C[C@H](C(=O)O)[C@H](c1ccc2c(c1)OC1(CCCN([C@H](C)c3cc(C(F)(F)F)ccc3C(F)(F)F)C1)CC2)C1CC1 (single isomer, unassigned) [Example 73, (2S,3R)-3-((R or S)-1′-((R)-1-(2,5-bis(trifluoromethyl)phenyl)ethyl)spiro-[chroman-2,3′-piperidin]-7-yl)-3-cyclopropyl-2-methylpropanoic Acid] |
| 7.74 | C[C@H](C(=O)O)[C@H](c1ccc2c(c1)OC1(CCCN([C@H](C)c3cc(C(F)(F)F)ccc3C(F)(F)F)C1)CC2)C1CC1 (single isomer, unassigned) [Example 74, (2S,3R)-3-((S or R)-1′-((R)-1-(2,5-bis (trifluoromethyl)phenyl)-ethyl)spiro[chroman-2,3′-piperidin]-7-yl)-3-cyclopropyl-2-methylpropanoic acid] |
| 9.43 | C[C@H](C(=O)O)[C@H](c1ccc2c(c1)OC1(CCCN([C@@H](C)c3cc(C(F)(F)F)ccc3C(F)(F)F)C1)CC2)C1CC1 (single isomer, unassigned) [Example 75, (2S,3R)-3-((S or R)-1′-((S)-1-(2,5-bis (trifluoromethyl)phenyl)-ethyl)spiro[chroman-2,3′-piperidin]-7-yl)-3-cyclopropyl-2-methylpropanoic acid] |
| 7.85 | CC(c1cc(Cl)ccc1F)N1CCC2(CCc3ccc([C@H](C4CC4)[C@H](C)C(=O)O)cc3O2)CC1 (single isomer, unassigned) [Example 78, (2S,3R)-3-(1′-((R or S)-1-(5-chloro-2-fluorophenyl)ethyl)spiro[chroman-2,4′-piperidin]-7-yl)-3-cyclopropyl-2-methylpropanoic Acid] |
| 8.61 | CC(c1cc(Cl)cc(Cl)c1OC(F)F)N1CCC2(CCc3ccc([C@H](C4CC4)[C@H](C)C(=O)O)cc3O2)CC1 (single isomer, unassigned) [Example 79, (2S,3R)-3-cyclopropyl-3-(1′-((R or S)-1-(3,5-dichloro-2-(difluoromethoxy)phenyl)-ethyl)spiro[chroman-2,4′-piperidin]-7-yl)-2-methylpropanoic Acid] |
| 8.49 | CC(c1cc(Cl)cc(Cl)c1OC(F)F)N1CCC2(CCc3ccc([C@H](C4CC4)[C@H](C)C(=O)O)cc3O2)CC1 (single isomer, unassigned) [Example 80, (2S,3R)-3-cycloprop-3-(1′-((S or R)-1-(3,5-dichloro-2-(difluoro-methoxy)phenyl)-ethyl)spiro[chroman-2,4′-piperidin]-7-yl)-2-methylpropanoic acid] |
| 6.99 | C[C@H](C(=O)O)[C@H](c1ccc2c(c1)OC1(CC2)[C@@H]2CC[C@H]1CN([C@H](C)c1cc(C(F)(F)F)ccc1C(F)(F)F)C2)C1CC1 (single isomer, unassigned) [Example 81] |
| 6.60 | C[C@H](C(=O)O)[C@H](c1ccc2c(c1)OC1(CC2)[C@@H]2CC[C@H]1CN([C@@H](C)c1cc(F)ccc1C(F)(F)F)C2)C1CC1 (single isomer, unassigned) [Example 82] |
| 6.10 | C[C@H](C(=O)O)[C@H](c1ccc2c(c1)OC1(CC2)[C@@H]2CC[C@H]1CN([C@H](C)c1cc(C(F)(F)F)ccc1C(F)(F)F)C2)C1CC1 (single isomer, unassigned) [Example 83] |
| 7.44 | C[C@H](C(=O)O)[C@H](c1ccc2c(c1)OC1(CC2)[C@@H]2CC[C@H]1CN([C@@H](C)c1cc(F)ccc1C(F)(F)F)C2)C1CC1 (single isomer, unassigned) [Example 85] |
| 7.82 | C[C@H](C(=O)O)[C@H](c1ccc2c(c1)OC1(CC2)CC(Nc2ncccc2C(F)(F)F)C1)C1CC1 (single isomer, unassigned) [Example 87] |
| 7.24 | C[C@H](C(=O)O)[C@H](c1ccc2c(c1)OC1(CC2)CC(Nc2ncccc2C(F)(F)F)C1)C1CC1 (single isomer, unassigned) [Example 88] |
| 7.61 | C[C@H](NC1CC2(CCc3ccc([C@H](C4CC4)[C@H](C)C(=O)O)cc3O2)C1)c1cc(C(F)(F)F)ccc1C(F)(F)F (single isomer, unassigned) [Example 92] |
| 8.58 | C[C@H](NC1CC2(CCc3ccc([C@H](C4CC4)[C@H](C)C(=O)O)cc3O2)C1)c1cc(C(F)(F)F)ccc1C(F)(F)F (single isomer, unassigned) [Example 94] |
| 7.31 | C[C@H](C(=O)O)[C@H](c1ccc2c(c1)OC1(CC2)CC(NCc2cc(C(F)(F)F)ccc2C(F)(F)F)C1)C1CC1 (single isomer, unassigned) [Example 95] |
| 7.91 | C[C@H](C(=O)O)[C@H](c1ccc2c(c1)OC1(CC2)CC(NCc2cc(C(F)(F)F)ccc2C(F)(F)F)C1)C1CC1 (single isomer, unassigned) [Example 96] |
| 7.79 | C[C@H](C(=O)O)[C@H](c1ccc2c(c1)OC1(CC2)CC(N(C)Cc2cc(C(F)(F)F)ccc2C(F)(F)F)C1)C1CC1 (single isomer, unassigned) [Example 97] |
| 8.79 | C[C@H](C(=O)O)[C@H](c1ccc2c(c1)OC1(CC2)CC(N(C)Cc2cc(C(F)(F)F)ccc2C(F)(F)F)C1)C1CC1 (single isomer, unassigned) [Example 98] |
